Source: patent US20250197372A1 (priority 2020, published 2025)

Biological target: rat maltase (partially purified alpha-glucosidase from intestinal rat powder)
Assay: Intestinal alpha-glucosidase assay, maltose substrate (Glucose GO Kit)
Type: biochemical
Experimental: Intestinal alpha-glucosidases (rat maltase and sucrase): Intestinal alpha-glucosidases act upon 1,4-alpha-glucoside bonds, breaking down disaccharides to glucose. To perform this assay, partially purified alpha-glucosidase from intestinal rat powder was incubated for 60 minutes at 37° C. with multiple dilutions of test compounds. Maltose or Sucrose respectively was then introduced as substrate to the mixture and incubated for 30 minutes at 37° C. The reaction was stopped by a 5-minute incubation at 90° C. and the resultant glucose production is detected using Sigma's Glucose GO Kit. Percent inhibition was then plotted as a function of concentration for each test compound. The IC50 was determined using a 4-PL curve fit and serves as the measure of relative inhibition of each test compound (see Table 3).

Structure (SMILES) | IC50
Cc1cc(NCc2ccc(CN3C[C@H](O)[C@@H](O)[C@H](O)[C@H]3CO)cc2)cc(-c2cccnn2)c1 [Compound 1052, (2R,3R,4R,5S)-2-(hydroxymethyl)-1-{[4-({[3-methyl-5-(pyridazin-3-yl)phenyl]amino}methyl)phenyl]methyl}piperidine-3,4,5-trio] | 14 nM
COc1cc(Cc2ccccc2)cc(NCCCCCCN2C[C@H](O)[C@@H](O)[C@H](O)[C@H]2CO)c1 [Compound 1145, (2R,3R,4R,5S)-1-{6-[(3-benzyl-5-methoxyphenyl)amino]hexyl}-2-(hydroxymethyl)piperidine-3,4,5-triol] | < 1 nM
[N-]=[N+]=Nc1ccc(NCCc2cnn(CCN3C[C@H](O)[C@@H](O)[C@H](O)[C@H]3CO)c2)c([N+](=O)[O-])c1 [Compound 1191, (2R,3R,4R,5S)-1-[2-(4-{2-[(4-azido-2-nitrophenyl)amino]ethyl}-1H-pyrazol-1-yl)ethyl]-2-(hydroxymethyl)piperidine-3,4,5-triol] | 171 nM
[N-]=[N+]=Nc1ccc(NCCc2cncc(CCN3C[C@H](O)[C@@H](O)[C@H](O)[C@H]3CO)n2)c([N+](=O)[O-])c1 [Compound 1187, (2R,3R,4R,5S)-1-[2-(6-{2-[(4-azido-2-nitrophenyl)amino]ethyl}pyrazin-2-yl)ethyl]-2-(hydroxymethyl)piperidine-3,4,5-triol] | 1200 nM
COc1cc(NCCCCCCN2C[C@H](O)[C@@H](O)[C@H](O)[C@H]2CO)cc(C2=CCCCC2)c1 [Compound 1149, (2R,3R,4R,5S)-1-(6-{[3-(cyclohex-1-en-1-yl)-5-methoxy-phenyl]amino}hexyl)-2-(hydroxymethyl)piperidine-3,4,5-triol] | < 1 nM
Cc1cc(NCc2cccc(CN3C[C@H](O)[C@@H](O)[C@H](O)[C@H]3CO)n2)cc(-c2ccc[nH]2)c1 [Compound 1335, (2R,3R,4R,5S)-2-(hydroxymethyl)-1-{[6-({[3-methyl-5-(1H-pyrrol-2-yl)phenyl]amino}methyl)pyridin-2-yl]methyl}piperidine-3,4,5-triol] | 231 nM
COc1cc(NCCc2ccc(CCN3C[C@H](O)[C@@H](O)[C@H](O)[C@H]3CO)cc2)cc(C2=COCCO2)c1 [Compound 1155, (2R,3R,4R,5S)-1-{2-[4-(2-{[3-(5,6-dihydro-1,4-dioxin-2-yl)-5-methoxyphenyl]amino}ethyl)phenyl]ethyl}-2-(hydroxymethyl)piperidine-3,4,5-triol] | 418 nM
COc1cc(CN2CCCO2)cc(NCCCCCCN2C[C@H](O)[C@@H](O)[C@H](O)[C@H]2CO)c1 [Compound 1182, (2R,3R,4R,5S)-2-(hydroxymethyl)-1-[6-({3-methoxy-5-[(1,2-oxazolidin-2-yl)methyl]phenyl}amino)hexyl]piperidine-3,4,5-triol] | 26 nM
OC[C@@H]1[C@@H](O)[C@H](O)[C@@H](O)CN1CCCCCCNc1ccc(-c2ncco2)cc1Cl [Compound 1203, (2R,3R,4R,5S)-1-(6-{[2-chloro-4-(1,3-oxazol-2-yl)phenyl]amino}hexyl)-2-(hydroxymethyl)piperidine-3,4,5-triol] | < 1 nM
CS(=O)(=O)c1cc(NCc2cccc(CN3C[C@H](O)[C@@H](O)[C@H](O)[C@H]3CO)c2)cc(-c2cccnn2)c1 [Compound 1040, (2R,3R,4R,5S)-2-(hydroxymethyl)-1-{[3-({[3-methanesulfonyl-5-(pyridazin-3-yl)phenyl]amino}methyl)phenyl]methyl}piperidine-3,4,5-triol] | 38 nM
COc1cc(NCCCCCCN2C[C@H](O)[C@@H](O)[C@H](O)[C@H]2CO)cc(C2=CCCO2)c1 [Compound 1147, (2R,3R,4R,5S)-1-(6-{[3-(4,5-dihydrofuran-2-yl)-5-methoxyphenyl]amino}hexyl)-2-(hydroxymethyl)piperidine-3,4,5-triol] | 8 nM
OC[C@@H]1[C@@H](O)[C@H](O)[C@@H](O)CN1CCc1ccc(CCNc2cc(Cl)cc(C3=COCCO3)c2)cc1 [Compound 1161, (2R,3R,4R,5S)-1-{2-[4-(2-{[3-chloro-5-(5,6-dihydro-1,4-dioxin-2-yl)phenyl]amino}ethyl)phenyl]ethyl}-2-(hydroxymethyl)piperidine-3,4,5-triol] | 273 nM
OC[C@@H]1[C@@H](O)[C@H](O)[C@@H](O)CN1CCCCCCNc1cc(-c2ncccn2)cc(C(F)(F)F)c1 [Compound 1131, (2R,3R,4R,5S)-2-(hydroxymethyl)-1-(6-{[3-(pyrimidin-2-yl)-5-(trifluoromethyl)phenyl]amino}hexyl)piperidine-3,4,5-triol] | 8 nM
[N-]=[N+]=Nc1ccc(NCCc2cc(CCN3C[C@H](O)[C@@H](O)[C@H](O)[C@H]3CO)ccc2C2CCCCC2)c([N+](=O)[O-])c1 [Compound 1171, (2R,3R,4R,5S)-1-[2-(3-{2-[(4-azido-2-nitrophenyl)amino]ethyl}-4-cyclohexylphenyl)ethyl]-2-(hydroxymethyl)piperidine-3,4,5-triol] | 5660 nM
[N-]=[N+]=Nc1ccc(NCc2ccc(CN3C[C@H](O)[C@@H](O)[C@H](O)[C@H]3CO)cc2)c([N+](=O)[O-])c1 [Compound 1170, (2R,3R,4R,5S)-1-[(4-{[(4-azido-2-nitrophenyl)amino]methyl}phenyl)methyl]-2-(hydroxymethyl)piperidine-3,4,5-triol] | < 1 nM
OC[C@@H]1[C@@H](O)[C@H](O)[C@@H](O)CN1CCc1ccc(CCNc2cc(Cl)cc(C3=CCOCC3)c2)cc1 [Compound 1160, (2R,3R,4R,5S)-1-{2-[4-(2-{[3-chloro-5-(3,6-dihydro-2H-pyran-4-yl)phenyl]amino}ethyl)phenyl]ethyl}-2-(hydroxymethyl)piperidine-3,4,5-triol] | 75 nM
OC[C@@H]1[C@@H](O)[C@H](O)[C@@H](O)CN1CCc1ccc(CCNc2cc(Cl)cc(-c3ncccn3)c2)cc1 [Compound 1162, (2R,3R,4R,5S)-1-{2-[4-(2-{[3-chloro-5-(pyrimidin-2-yl)phenyl]amino}ethyl)phenyl]ethyl}-2-(hydroxymethyl)piperidine-3,4,5-triol] | 138 nM
O=[N+]([O-])c1cc(N2CCOCC2)ccc1NCc1cccc(CN2C[C@H](O)[C@@H](O)[C@H](O)[C@H]2CO)c1 [Compound 1067, (2R,3R,4R,5S)-2-(hydroxymethyl)-1-{[3-({[4-(morpholin-4-yl)-2-nitrophenyl]amino}methyl)phenyl]methyl}piperidine-3,4,5-triol] | 81 nM
CCCc1nc(-c2cc(Cl)cc(NCCc3ccc(CCN4C[C@H](O)[C@@H](O)[C@H](O)[C@H]4CO)cc3)c2)no1 [Compound 1123, (2R,3R,4R,5S)-1-{2-[4-(2-{[3-chloro-5-(5-propyl-1,2,4-oxadiazol-3-yl)phenyl]amino}ethyl)phenyl]ethyl}-2-(hydroxymethyl)piperidine-3,4,5-triol] | 440 nM
COc1cc(NCCCCCCN2C[C@H](O)[C@@H](O)[C@H](O)[C@H]2CO)cc(-c2ccccc2)c1 [Compound 1150, (2R,3R,4R,5S)-2-(hydroxymethyl)-1-[6-({5-methoxy-[1,1′-biphenyl]-3-yl}amino)hexyl]piperidine-3,4,5-triol] | < 1 nM
[N-]=[N+]=Nc1ccc(NCc2cc(CCN3C[C@H](O)[C@@H](O)[C@H](O)[C@H]3CO)cs2)c([N+](=O)[O-])c1 [Compound 1174, (2R,3R,4R,5S)-1-[2-(5-{[(4-azido-2-nitrophenyl)amino]methyl}thiophen-3-yl)ethyl]-2-(hydroxymethyl)piperidine-3,4,5-triol] | < 1 nM
OC[C@@H]1[C@@H](O)[C@H](O)[C@@H](O)CN1CCc1ccc(CCNc2cc(Cl)cc(-c3ccco3)c2)cc1 [Compound 1159, (2R,3R,4R,5S)-1-{2-[4-(2-{[3-chloro-5-(furan-2-yl)phenyl]amino}ethyl)phenyl]ethyl}-2-(hydroxymethyl)piperidine-3,4,5-triol] | 25 nM
O=[N+]([O-])c1cc(N2C3CCC2COC3)ccc1NCc1ccc(CN2CC(O)C(O)C(O)C2CO)cc1 (stereo in doubt) [Compound 1018, (2S,3S,4S,5R)-2-(hydroxymethyl)-1-({4-[({2-nitro-4-[(1R,5S)-3-oxa-8-azabicyclo[3.2.1]octan-8-yl]phenyl}amino)methyl]phenyl}methyl) piperidine-3,4,5-triol] | < 1 nM
COc1cc(-c2cnccn2)ccc1NCCCCCCN1C[C@H](O)[C@@H](O)[C@H](O)[C@H]1CO [Compound 1199, (2R,3R,4R,5S)-2-(hydroxymethyl)-1-(6-{[2-methoxy-4-(pyrazin-2-yl)phenyl]amino}hexyl)piperidine-3,4,5-triol] | 8 nM
O=[N+]([O-])c1cc(CCO)ccc1NCCCCCCN1C[C@H](O)[C@@H](O)[C@H](O)[C@H]1CO [Compound 1292, (2R,3R,4R,5S)-1-(6-{[4-(2-hydroxyethyl)-2-nitrophenyl]amino}hexyl)-2-(hydroxymethyl)piperidine-3,4,5-triol] | 11 nM
[N-]=[N+]=Nc1ccc(NCc2ccc(-c3ccc(CN4C[C@H](O)[C@@H](O)[C@H](O)[C@H]4CO)cc3)cc2)c([N+](=O)[O-])c1 [Compound 1166, (2R,3R,4R,5S)-1-[(4′-{[(4-azido-2-nitrophenyl)amino]methyl}-[1,1′-biphenyl]-4-yl)methyl]-2-(hydroxymethyl)piperidine-3,4,5-triol] | < 1 nM
[N-]=[N+]=Nc1ccc(NCc2cccc(CN3C[C@H](O)[C@@H](O)[C@H](O)[C@H]3CO)c2)c([N+](=O)[O-])c1 [Compound 1169, (2R,3R,4R,5S)-1-[(3-{[(4-azido-2-nitrophenyl)amino]methyl}phenyl)methyl]-2-(hydroxymethyl)piperidine-3,4,5-triol] | < 1 nM
[N-]=[N+]=Nc1ccc(NCCNc2cc(Cl)cc(CCN3C[C@H](O)[C@@H](O)[C@H](O)[C@H]3CO)c2)c([N+](=O)[O-])c1 [Compound 1143, (2R,3R,4R,5S)-1-{2-[3-({2-[(4-azido-2-nitrophenyl)amino]ethyl}amino)-5-chlorophenyl]ethyl}-2-(hydroxymethyl)piperidine-3,4,5-triol] | 2060 nM
